Laboratory results: patent US9150519B2, “6-amino-pyrimidine-4-carboxamide derivatives and related compounds which bind to the sphingosine 1-phosphate (S1P) receptor for the treatment of multiple sclerosis” (MERCK SERONO SA, priority 2007, dated 2015)
pEC50: −log10 of the molar value.

Legend:
S1P3 = S1P3 (Homo sapiens (Human), UniProt Q99500); assay: 35S-GTPγS binding assay, S1P3 membranes; format: biochemical; details: membranes from CHO cells expressing S1P3; read-out: S1P3 GTPyS EC50
Description: (§1) Membranes were prepared from CHO cells expressing S1P1 or S1P3 for use in ligand and […] binding studies. Cells were suspended in 50 mM TRIS, pH 7.4, 2 mM EDTA, 250 mM Sucrose (buffer A) and 1× Complete protease inhibitor cocktail (Roche), and disrupted at 4° C. by nitrogen decompression using a cell disruption bomb (Parr Instrument). Following centrifugation at 1000 RPM for 10 min at 4° C., the supernatant was suspended in buffer A and centrifuged again at 19000 RPM for 60 min at 4° C. The pellet was then suspended in 10 mM HEPES, pH 7.4, 1 mM EDTA, 250 mM Sucrose (Buffer B), and 1× Complete EDTA-free protease inhibitor cocktail and homogenized using a potter. Membranes were flash frozen in liquid nitrogen and stored at −80° C. [33P]sphingosine 1-phosphate (3000 Ci/mmol; American Radiolabeled Chemicals, Inc.) was added to test compounds in DMSO. Membranes and WGA SPA beads (GE Healthcare) were added to give a final volume of 100 μl in 96-well plates with assay concentrations of 25 μM or 10 μM [33P]sphingosine 1-phosphate (respectively for S1P1 or S1P3), 50 mM HEPES, pH 7.5, 5 mM MgCl2, 100 mM NaCl, 0.4% fatty acid-free BSA, 1-5 μg/well of proteins and 100 μg/well of WGA SPA beads. Binding was performed for 60 min at room temperature on a shaker and bound radioactivity was measured on a PerkinElmer 1450 MicroBeta counter. Specific binding was calculated by subtracting remaining radioactivity in the presence of 1000-fold excess of unlabeled S1P. Binding data were analyzed using the GraphPad Prism program.
Measurements of ^35S-GTPγS Binding: Membranes (1 to 10 μg protein) prepared as described above, were incubated in 96-well Scintiplates (PerkinElmer) with test compounds diluted in DMSO, in 180 μl of 20 mM HEPES, pH 7.4, 10 mM MgCl2, 2 μg/well Saponin, 0.2% fatty acid free BSA (Assay buffer), 140 mM NaCl and 1.7 μM GDP. The assay was initiated with the addition of 20 μl of 1.5 nM [35S]-GTPγS (1100 Ci/mmol; GE Healthcare) in assay buffer. After 60 min incubation at 30° C. on a shaker, plates were centrifuged for 10 min at 2000 RPM. Supernatant was discarded and membrane bound radioactivity was measured on a PerkinElmer 1450 MicroBeta counter. Triplicate samples were averaged and expressed as % response relative to SIP activation in absence of compound (n=2).

S1P1 = S1P1 (Homo sapiens (Human), UniProt P21453); assay: 35S-GTPγS binding assay, S1P1 membranes; format: biochemical; details: membranes from CHO cells expressing S1P1; read-out: S1P1 GTPyS EC50
Chain of S1P1 (P21453 whole entry, species assumed): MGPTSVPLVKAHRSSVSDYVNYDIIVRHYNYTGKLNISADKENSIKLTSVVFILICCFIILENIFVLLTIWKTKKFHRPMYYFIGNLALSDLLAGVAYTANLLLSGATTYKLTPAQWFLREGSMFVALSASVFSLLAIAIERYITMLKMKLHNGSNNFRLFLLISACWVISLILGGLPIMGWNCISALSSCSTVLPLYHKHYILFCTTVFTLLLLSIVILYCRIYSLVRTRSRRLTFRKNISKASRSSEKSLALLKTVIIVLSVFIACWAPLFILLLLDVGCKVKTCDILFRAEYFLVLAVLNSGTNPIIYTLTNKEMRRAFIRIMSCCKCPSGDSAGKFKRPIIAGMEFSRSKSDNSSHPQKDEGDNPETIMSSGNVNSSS
Description: as §1, with “Membranes and WGA SPA beads (GE Healthcare) were added to give a final volume of 100 μl in 96-well plates with assay concentrations of 25 μM or 10 μM [33P]sphingosine 1-phosphate (respectively for S1P1 or S1P3), 50 mM HEPES, pH 7.5, 5 mM MgCl2, 100 mM NaCl, 0.4% fatty acid-free BSA, 1-5 μg/well of proteins and 100 μg/well of WGA SPA beads.” left out
The assay was initiated with the addition of 20 μl of 1.5 nM [35S]-GTPγS (1100 Ci/mmol; GE Healthcare) in assay buffer. After 60 min incubation at 30° C. on a shaker, plates were centrifuged for 10 min at 2000 RPM. Supernatant was discarded and membrane bound radioactivity was measured on a PerkinElmer 1450 MicroBeta counter. Triplicate samples were averaged and expressed as % response relative to SIP activation in absence of compound (n=2).

Chain of S1P3 (Q99500 whole entry, species assumed): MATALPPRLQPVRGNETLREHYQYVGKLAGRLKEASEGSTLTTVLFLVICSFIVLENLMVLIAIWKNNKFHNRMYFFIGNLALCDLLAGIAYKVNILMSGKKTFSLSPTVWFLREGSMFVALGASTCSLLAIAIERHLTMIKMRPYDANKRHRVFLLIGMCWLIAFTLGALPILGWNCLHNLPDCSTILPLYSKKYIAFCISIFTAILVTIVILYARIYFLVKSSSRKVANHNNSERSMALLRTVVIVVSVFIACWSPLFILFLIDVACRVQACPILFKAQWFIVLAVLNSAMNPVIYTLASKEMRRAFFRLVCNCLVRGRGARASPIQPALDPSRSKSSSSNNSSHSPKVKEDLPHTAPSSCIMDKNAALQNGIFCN

pEC50 (S1P3)	pEC50 (S1P1)	SMILES
< 4.70	8.22	O=C(Nc1cccc2[nH]ccc12)c1cc(N(CC2CC2)C2CCCCC2)ncn1 [Example 1-126]
< 4.52	6.36	Cc1cc(S(N)(=O)=O)ccc1NC(=O)c1cc(NC2CCCCC2)ncn1 [Example 1-18]
< 4.52	7.19	Cc1cc(S(N)(=O)=O)ccc1NC(=O)c1cc(N(C)C2CCCCC2)ncn1 [Example 1-29]
6.59	7.92	Cc1cc(S(=O)(=O)NCC(=O)O)ccc1NC(=O)c1cc(N(CC2CC2)C2CCCCC2)ncn1 [Example 1-61]
< 4.70	7.92	CCCN(CC1CC1)c1cc(C(=O)Nc2cc3cn[nH]c3cc2C)ncn1 [Example 1-71]
